Experimental findings from article PMC12431658, “Versatile roles of rubredoxin reductase of Pseudomonas aeruginosa TBCF10839 in virulence and stress protection” (PLOS Pathogens, 2025) are described below.

The target of the test is T1, rubredoxin reductase RubB (also RubR, RdxR) (Pseudomonas aeruginosa, UniProt Q9HTK9).
T1 construct: gene alkT; gene 1,155 bp
The experiment in a line: stopped-flow FAD fluorescence (excitation […] nm). It counts as biochemical. To be noted: pH 8.0, 0.1 M NaCl, 25 °C; reduction of bound FAD; no RubA2.

T1 sequence (Q9HTK9 whole entry): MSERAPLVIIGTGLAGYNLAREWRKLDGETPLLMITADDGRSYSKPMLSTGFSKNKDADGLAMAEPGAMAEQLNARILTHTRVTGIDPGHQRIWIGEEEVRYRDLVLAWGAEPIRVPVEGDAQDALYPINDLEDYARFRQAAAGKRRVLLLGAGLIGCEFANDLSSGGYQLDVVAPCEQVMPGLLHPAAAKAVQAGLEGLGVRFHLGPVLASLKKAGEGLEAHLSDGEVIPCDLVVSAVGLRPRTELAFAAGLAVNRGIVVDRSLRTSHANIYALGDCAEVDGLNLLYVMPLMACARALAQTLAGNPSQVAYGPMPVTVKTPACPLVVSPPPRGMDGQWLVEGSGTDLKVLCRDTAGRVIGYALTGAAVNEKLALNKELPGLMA

As for `NC(=O)C1=CN([C@@H]2O[C@H](COP(=O)(O)OP(=O)(O)OC[C@H]3O[C@@H](n4cnc5c(N)ncnc54)[C@H](O)[C@@H]3O)[C@@H](O)[C@H]2O)C=CC1` [NADH], the “stopped-flow FAD fluorescence (excitation 436 nm)” value is on record as “after the addition of NADH the FAD fluorophore was reduced within milliseconds to FADH2”.
